Laboratory results reported in patent publication US20150216921A1, “BASE POWDER FROM THE RED RASPBERRY RUBUS IDAEUS AND ACTIVATED MICRONIZED ZEOLITE FOR ATTENUATING NICOTINE ADDICTION, METHOD FOR THE PREPARATION THEREOF AND USE THEREOF” (University fo Hidalgo, priority 2011, published 2015).

What was measured:
[1] = test system: physical dependence on nicotine; assay: Fagerstrom test, degree of nicotine dependence; type: in vivo, humans; conditions: persons quitting smoking, at end of treatment
Description: (§1) 9. Treatment 1:—Two persons, a person and a person […], used ZAM ® (activated and micronized zeolite) at doses of 5 g daily during 14 days.
(§2) 10. Treatment 2:—Two persons, a person and a person […], used the raspberry powder recorded in January 2010 in the Mexican Institute of Industrial Property (patent application number record Mx/ a/2010/ 000827, at folio MX/E/2010/004489). At a dose of 5 g per day during 14 days.
(§3) 11. Treatment 3: A person, a person used a commercial product of raspberry, with similar characteristics to the raspberry powder, mentioned in the previous section, in combination with ZAM® (activated and micronized zeolite) at dose of 5 g per day.
(§4) 12. Treatment 4: Two persons, a person and a person, used raspberry powder registered in the patent application number Mx/a/2010/000827, folio MX/E/2010/004489) in combination with ZAM® (micronized and activated zeolite) in a dose of 7 g per day during 14 days.
(§5) 13. Treatment 5:—A person used varenicline, commercial brand, at dose of 1 mg twice daily during 7 days, then 0.5 mg daily for the next 3 days; continuing with 0.5 mg twice a day during 4 days, and finally 1 mg during 1 day, every 12 h. This cycle was repeated 12 weeks. Treatment 5.
14. Anxiety was assessed by the Hamilton Anxiety Scale (Hamilton, 1969; Bulbena, 2000; APA, 2000) and the degree of nicotine dependence with Fagerstrom test (1991).
25. […]

[2] = test system: anxiety (withdrawal syndrome); assay: Hamilton Anxiety Scale in persons quitting smoking; type: in vivo, humans; conditions: one person, 12 weeks treatment
Description: as §1, §2, §3, §4
13. […]
14. Anxiety was assessed by the Hamilton Anxiety Scale (Hamilton, 1969; Bulbena, 2000; APA, 2000) and the degree of nicotine dependence with Fagerstrom test (1991). […]
16. 14 scale items were evaluated, 13 related to anxiety symptoms and signs, and the last item values the patient's behavior during the assessment interview. […]
17. The physician scored from 0 to 4 points each item, assessing both the intensity and the frequency of it. […]

smoking = assay: Smoking cessation and follow-up by telephone; type: in vivo, humans
Description: as §1, §2, §3, §4, §5

[3] = test system: anxiety caused by nicotine withdraw syndrome; assay: High-cross test, anxiety caused by nicotine withdraw syndrome; type: in vivo; conditions: mice, nicotine for 14 consecutive days then suspended
Description: (§6) 7. Using raspberry powder and pure ellagic acid (Sigma Aldrich) two experiments in mice were developed, one was to evaluate the effect of those in the anxiety caused by nicotine withdraw syndrome; and the other was to evaluate the nicotine addiction. Based on the process mentioned in the Mexican Institute of Industrial Property in patent application number Mx/a/2010/000827 record dated 21/ENE/2010, folio MX/E/2010/004489. In the first case the high-cross test was used and in the second test site selectivity paradigm. Nicotine was administered to mice for 14 consecutive days and when it was suspended, anxiety was developed.

nicotine addiction = assay: Site selectivity paradigm, nicotine addiction; type: in vivo; conditions: mice conditioned by nicotine
Description: as §6

[4] = test system: tumorigenicity of the nitrosamine NNK; conditions: dose of 4g/kg; cited from earlier work
[5] = test system: lung tumorogenesis of benzo [a] pyrene; conditions: cited from earlier work

SMILES	Fagerstrom test, physical dependence after treatment [1]	Hamilton Anxiety Scale, anxiety during the first month of treatment [2]	Hamilton Anxiety Scale, anxiety during the second and third month [2]	relapse a month after the treatment (smoking; monitoring by telephone, 1 month after treatment ends)	smoking cessation during treatment period (smoking; persons, during treatment / proposed period)	signs related to anxiety caused by the refraining from exposure to nicotine [3]	nicotine-conditioned behavior (nicotine addiction)	inhibition of tumor multiplicity [4] [%]	effect against tumorogenesis in lung of benzo [a] pyrene ([5]; intra peritoneal injection)	inhibition in the lung tumorogenesis of benzo [a] pyrene ([5]; mice feed by EA at a dose of 400 mg/kg) [%]
c1cnc2cc3c(cc2n1)[C@@H]1CNC[C@H]3C1 [varenicline]	high (The Smokers with 6 or 7 points suffer high physical dependence)	less anxiety	increased anxiety	fall smoking again	quit smoking in the second month of treatment	–	–	–	–	–
O=c1oc2c(O)c(O)cc3c(=O)oc4c(O)c(O)cc1c4c23 [ellagic acid, 2,3,7, 8—tetrahidrobenzopirano [5,4, 3—cde] benzopiran-5-10 diona]	–	–	–	–	–	significantly reduce	modulate this behavior in a significant way	54	not effective	90
